System: frataxin deficient fibroblasts (GM03665) from Friedreich's ataxia patient
Assay: Frataxin Deficient Fibroblast Viability Assay (BSO Assay)
Type: cell-based
Settings: for protection against BSO induced cell death (in words): BSO Assay, text statement; for EC50: Homo sapiens, Fibroblast, FA patient fibroblasts pretreated with compound, BSO 10 mM, MTT after 48 hrs
Protocol: Example 12: Frataxin Deficient Fibroblast Viability Assay (the “BSO Assay”)
This Example was used to evaluate the various new compositions for their potential efficacy in the treatment of Friedreich's Ataxia (FA or FRDA)—substantially as described in the above cited Reference (Matthias et al.).
The stock solutions of the test articles (and control compounds) were prepared in dimethyl sulfoxide (DMSO at 10 mM), Working stock solutions (2 times concentrated) were prepared on the day of the experiment in respective cell culture medium to be used for assay (detailed medium description below). A listing of compounds used as test articles in this Example 12 are found in Table 1, below.
A patient derived frataxin deficient fibroblast cell line was obtained from Coriell Institute. More specifically, the following cell lines/DNA samples were obtained from the NIGMS Human Genetic Cell Repository at the Coriell Institute for Medical Research: GM03665. To evaluate importance of various growth conditions on cell susceptibility to BSO toxicity cells were grown on:
MEM (Sigma-Aldrich) 15% Fetal Bovine Serum (FBS) without growth factors;
MEM (Sigma-Aldrich) 15% FBS with growth factors (Catalogue number 100-18B, Recombinant Human FGF-basic (154 a.a.) and catalogue number AF-100-15, Animal-Free Recombinant Human EGF from Peprotech);
MEM199/MEM EBS (Bioconcept Ltd.) 10% FBS, insulin 10 μg/ml, L-glutamine 2 mM with growth factors (Catalogue number 100-18B, Recombinant Human FGF-basic (154 a.a.) and catalogue number AF-100-15, Animal-Free Recombinant Human EGF from Peprotech).
To conduct an experiment, fibroblast cells (from all growth conditions) were seeded (100 μL (cells 3×10^3/well) on 96-well plates in MEM199/MEM EBS medium 10% FBS, insulin 10 μg/mL, L-glutamine 2 mM with growth factors and allowed to grow on plate for 24 hrs. After 24 hrs., media was removed and then test compounds of interest were added (100 μL, 2 times concentrated stock) to 96-well plates (end DM80 concentration not exceeding 0.5%) and incubated for 24 hours. Then L-buthionine-sulfoximine (BSO, from Acros Organics, Cat. No. 235520010) was added (100 μL, 2 times concentrated stock) at end concentrations ranging from 1 to 10 mM. Both test compounds and BSO were dissolved in MEM199/MEM EBS medium 10% FBS, insulin 10 μg/mL, L-glutamine 2 mM with growth factors. Cell viability was monitored and either after 24- or 48-hours cell viability was assayed by MTT (Thiazolyl blue tetrazolium bromide) assay. For the MTT assay, media was removed and 100 μL of MTT 1 mg/mL was added, incubated for 2 hours at +37° C., then medium was removed and 100 μL of isopropanol added to dissolve sediment. Absorption was measured at 570 (OD570) and 650 (QD650) nm wavelengths. Control cells (vehicle instead of BSO and compound) and vehicle control (with BSO, but vehicle instead of test compound) were treated in the same manner as ceils with BSO and compound. All cell media contained penicillin and streptomycin 100 U/mL each.
Absorption readouts were processed as follows: ValueΔ=ValueOD570−ValueOD650 and the obtained values were used to calculate cell viability as % of control cell (i.e., no BSO, no compound, just vehicle) viability.
Except as otherwise indicated in Table 1, all samples were run in at least 3 replicates for test compounds and at least 8 replicates for controls (i.e., both control (no BSO, no compound) and vehicle control (i.e., with BSO, no compound). Exact N per data points are indicated in the figures/table legends. Results for the compounds (test articles and controls) tested are listed in Table 1, below.
This is a cell-based assay measuring cytotoxicity which results from oxidative stress subsequent to depletion of endogenous glutathione defense mechanisms. The cells were primary Friedreich Ataxia (FA) patient fibroblasts which were incubated for 48 hrs. in BSO, an inhibitor of gamma glutamyl synthetase, an enzyme required for glutathione production. […]

COC1=C(OC)C(=O)C(CCCCCCCCCC(F)(F)F)=C(C)C1=O [Compound C, 2,3-dimethoxy-5-methyl-6-(10,10,10-trifluorodecyl)cyclohexa-2,5-diene-1,4-dione]
protection against BSO induced cell death (in words): best of the test compounds
EC50: 0.129 µM

COC1=C(OC)C(=O)C(CCCCF)=C(C)C1=O [Compound J, 2-(4-fluorobutyl)-5,6-dimethoxy-3-methylcyclohexa-2,5-diene-1,4-dione]
protection against BSO induced cell death (in words): not that effective
EC50: > 1 µM

CC1(C)CC[C@]2(NC(=O)C(C)(F)F)CC[C@]3(C)[C@H](C(=O)C=C4[C@@]5(C)C=C(C#N)C(=O)C(C)(C)[C@@H]5CC[C@]43C)[C@@H]2C1 [Omaveloxolone, reference compound]
protection against BSO induced cell death (in words): roughly equivalent in protection as compared with Vatiquinone
protection against BSO induced cell death (in words) (listed as omaveloxolone): displayed anti-ferroptotic activity
EC50: 0.149 µM
